US20040023276A1, “LXR-ligand induced genes and proteins” (priority 2002, published 2004)

Test system: LXRLI1 gene
Experiment: Microarray gene expression profiles of cells treated with LXR-ligand
Format: cell-based, human
Conditions: THP-1 cells, primary macrophages, primary hepatocytes; APD 0.001-0.1 μM, 6-24 hours; treated vs. untreated
Excerpt: To identify human transcripts up or down regulated by LXR-ligand, FlexJet™ microarrays representing either 25,000 Unigene clusters were hybridized to a mixture of cRNAs prepared from samples obtained from untreated versus treated cells of various types. Microarrays, and materials and methods for preparing hybridization samples from purified RNA, hybridizing the microarrays, detecting hybridization signals, and data analysis are described in van't Veer,iet al. (2002 Nature 415:530-536) and Hughes, et al. (2001 Nature Biotechnol. 19:342-7).
Experiments were conducted comparing gene expression profiles of primary hepatocytes, primary human macrophage and THP-1 cells treated with a variety of compounds known to activate the LXR and PPAR nuclear receptor regulated pathways. Additional compound treatments were performed which are known to cause an increase, or decrease in cellular cholesterol. All cells were cultured at 37° C. in a humidified atmosphere consisting of 95% air and 5% carbon dioxide. For each cell sample, mRNA was extracted and purified using Trizol reagent (Invitrogen Corporation, Carlsbad, Calif.) followed by DNAse treatment, as described by Fu, et al. (2001 J. Biol. Chem. 276:38378-87). For the primary hepatocytes, the Trizol purification was followed by a RNasy DNAase (Promega Corp, Madison, Wis.) step per the manufacturer's instructions. […]

CC(=O)Oc1ccc2c(c1)[C@@]1(C)CCC[C@](C)(C(=O)OC(=O)[C@@]3(C)CCC[C@]4(C)c5cc(OC(C)=O)ccc5CC[C@@H]34)[C@@H]1CC2 [APD, acetylpodocarpic dimer]
Transcription of the LXRLI1 gene: induced
